The source of these data is patent publication US8058395B2, “Chimeric protein comprising a green fluorescent ptotein fused to a transcription factor” (The United States of America as represented by the …, priority 1995, dated 2011).

SMILES strings stand for the structures.

Assay type in all cases: cell-based
For test [1], the target named is T1, GFP-GR (Rattus norvegicus, UniProt P06536, C656G/D98G).
T1 construct: expressed in transfected cells; host or cells: 1471.1 cells (murine C127 adenocarcinoma derivative); 3134 cells (C127 derivative) for gene targeting
Nature of the test: Activation of endogenous multi-copy MMTV LTR-CAT reporter in 1471.1 cells expressing GFP-GR (ligand specificity). The conditions noted are these: 4 hrs, dex 1 nM and 10 nM, RU486 10 nM.

The target of test [2] is T1, GFP-GR. Nature of the test: Cytoplasm-to-nuclear translocation of GFP-GR in living transfected murine adenocarcinoma cells (video/confocal microscopy).
The target in test [3] is T1, GFP-GR. Nature of the test: Intranuclear accumulation pattern (foci) of GFP-GR, confocal microscopy and 3D reconstruction. The conditions noted are these: ligand-treated cells.

Turning to `C[C@]12CC[C@@H]3c4ccc(O)cc4CC[C@H]3[C@@H]1CC[C@@H]2O` [17-β-estradiol], the “activation of MMTV LTR-CAT reporter” value at GFP-GR [1] is given as “fails to activate”. At GFP-GR [2] (10 nM ligand, 30 min at 37° C.), the “extent of GFP-GR cytoplasm-to-nuclear translocation” value is given as “did not cause intranuclear GFP-GR accumulation”. For the same compound, on GFP-GR [3], the “intranuclear focal accumulation pattern of GFP-GR” value is reported as “not observed”.
For `C[C@@H]1C[C@H]2[C@@H]3CCC4=CC(=O)C=C[C@]4(C)[C@@]3(F)[C@@H](O)C[C@]2(C)[C@@]1(O)C(=O)CO` [dexamethasone], at GFP-GR [2], the “fluorescing cells in which translocation of GFP-GR occurs” value amounted to 100%.
